Experimental findings from ChEMBL document CHEMBL5726679, “Cycloalkane derivatives” (2017) are described below.

pIC50: −log10 of the molar value.

A word on the pIC50: it is the IC50 on a negative log10 scale, so that one unit is a factor of ten.

This test is described as follows: Electrophysiological Assay: Current record was obtained by an automated patch clamp system “IonWorks Quattro (Molecular Devices Corporation)” in Population Patch Clamp mode. The operation was conducted in accordance with the operating procedure of the system. A Dulbecco's phosphate buffer containing calcium and magnesium (Sigma) was used as an extracellular fluid, and a low C1-buffer (100 mM K-gluconate, 40 mM KCl, 3.2 mM MgCl2, 5 mM EGTA, 5 mM Hepes, pH 7.3) was used as an intracellular fluid. A test compound was dissolved in dimethylsulfoxide (DMSO) to prepare a 30 mM stock solution, so as to produce 4-fold serial dilutions with the extracellular fluid for attaining a DMSO concentration of 0.3% in measurement.The hNav 1.7/β1/β2 cells cultured to a 70-80% confluent state in a T150 flask (Sumilon) were washed with PBS and subsequently with versene (Invitrogen Corp.), and collected by allowing to react with 0.05% trypsin (Invitrogen Corp.) at 37° C. for 3 minutes. After washing with a culture medium, the resultant cells were suspended in an extracellular fluid at a concentration of […] so as to be used for the measurement. The cell membrane was perforated by using an intracellular fluid including 100 μg/ml amphotericin B (Sigma). The format is cell-based. On the technique in general: The patch-clamp technique gives a direct electrical read-out from membranes.

As for `Cn1nccc1[C@H]1CCC[C@@H]1Oc1cc(F)c(S(=O)(=O)Nc2nncs2)cc1Cl` (relative stereo), the pIC50 was 6.55.
